# Test results as given in US6710018B2, “Compositions containing a dicarboxylic acid diester and a post-emergent herbicide and a method of using the same” (Falcon Lab LLC, priority 2002, dated 2004).
# How the values were obtained:
# Type in all cases: in vivo
# Velvetleaf = assay: Example 4: container-grown velvetleaf, backpack sprayer, necrosis and control; conditions: for % Necrosis After 1 Day / % Control 5 Days / % Control 9 Days / % Control 21 Days: velvetleaf, chlorimuron 0.31 lb.ai/A, dimethyl azelate 1.5 % W/W, 12 gal/A spray
# Description: Chlorimuron is a sulfonylurea-type postemergence herbicide, sold by duPont under the trade name “Classic”. Dimethyl azelate (80% technical grade with 20% emulsifier) was added with the dilute herbicidal spray solution to determine if the rapidity and effectiveness of weed control was improved. A single nozzle flat fan wand backpack sprayer with C02 propellant calibrated for 12 gal/A spray volume was used to apply the treatments with a handheld wand applicator and constant walking speed. Velvetleaf plants of 6 to 8 inch height with 3 plants per 16 fl oz container in soil-less media were treated with the mixtures shown in the table below. Each treatment was applied to 3 containers to provide 3 replications per treatment. The dilute spray solutions were agitated during application. The effects of the treatment were observed daily for 21 days with the following results: […]
# [1] = tested on: Mugwort (Artemisia vulgaris L.); assay: Example 3: container-grown mugwort, spray treatment, necrosis and control; conditions: DMA 1.5 % W/W, 40 gal/A spray; for % Necrosis Day 1: Day 1, glyphosate 0.5 % W/W; for % Necrosis Day 3: Day 3, glyphosate 0.5 % W/W; for % Control Day 9: Day 9, glyphosate 0.5 % W/W; for % Control Day 12: Day 12, glyphosate 0.5 % W/W; for % Control Day 15: Day 15, glyphosate 0.5 % W/W; for % Control Day 19: Day 19, glyphosate 0.5 % W/W
# Description: Mugwort (Artemisia vulgaris L.) rhizomes 2 to 3 inches in length were collected from established plants and planted into soil-less media in 16 fl. oz. size containers. Each container was a replicate and contained one plant. On Day 0, 14 to 18 inch height single stem plants of mugwort were treated with the solutions shown in Table 1 with calibrated hand pump sprayers with constant agitation. Each plant was sprayed with 14 hand pumps for a nominal 40 gal/A spray volume application. Treatments were irrigated and fertilized as needed.
# [2] = tested on: Momingglory, pitted (Ipomoea lacunosa L.); assay: Example 5: potted pitted morningglory, spray treatment, epinasty and control; conditions: DMA 2.0 % W/W, 12 gpa spray
# Description: Momingglory, pitted (Ipomoea lacunosa L.) was seeded into soil-less media in 16 fl oz plastic pots with 3 plants established per pot. Each pot was a replication. When the morningglory plants had two true leaves, control treatments were applied by 2 manual hand pumps from a calibrated hand-pump sprayer. The spray application was a nominal 12 gpa spray volume. The Day 0 treatments were applied as 2 replications with constant agitation of the dilute spray solution. Treatments were evaluated for a 21 day interval after application as follows: […]
# Rye (Secale cereale L) = assay: Example 6 Study 1: container-grown rye, spray treatment, necrosis and control; conditions: sethoxydin 0.01 % W/W, dimethyl azelate 3 % W/W, 25 gal/Acre spray; for % Necrosis After 3 Day: 3 days
# Description: Rye (Secale cereale L) was grown in 16 fl. oz. containers in soil less media until 4 inches in height and then treated with the herbicidal compositions shown in Table 1 by spraying the herbicidal compositions with 4 pumps of a calibrated hand pump sprayer. The spray volume delivered was 25 gal/Acre. The containers contained approximately 12 rye plants per pot and each container was one replication. Treatments were in full sun with no wind. The effects of the treatments were observed over 3 weeks with the following results recorded: Sethoxydin, a cyclohexadione class herbicide, was obtained from BASF Corp. as “Poast”. The dimethyl azelate was a technical grade obtained from Cognis Corp.
# corn (Zea mays L.) = assay: Example 6 Study 2: potted corn, spray treatment, necrosis and control; conditions: sethoxydin 0.01 % W/W, dimethyl azelate 3 % W/W, 13 gal/A spray; for % Necrosis After 3 Day: 3 days
# Description: Rye (Secale cereale L) was grown in 16 fl. oz. containers in soil less media until 4 inches in height and then treated with the herbicidal compositions shown in Table 1 by spraying the herbicidal compositions with 4 pumps of a calibrated hand pump sprayer. The spray volume delivered was 25 gal/Acre. The containers contained approximately 12 rye plants per pot and each container was one replication. Treatments were in full sun with no wind. The effects of the treatments were observed over 3 weeks with the following results recorded: Sethoxydin, a cyclohexadione class herbicide, was obtained from BASF Corp. as “Poast”. The dimethyl azelate was a technical grade obtained from Cognis Corp. Another identical study was conducted with corn (Zea mays L.) with 3 plants per pot and 2 replications. The treatments were applied as 2 pumps per pot for a 13 gal/A spray volume to 6 inch height corn plants.
# a variety of weeds = assay: Example 1: whole plot, summary of visual effect in words; conditions: Example 1 plot; after one day
# Description: A quart of glyphosate herbicide was prepared using the label recommendations of the manufacturer (Monsanto) by adding 18 ml. (0.625 liq. oz.) of “Roundup® Super Concentrate” (41% isopropyl glyphosate), to water and bringing the final solution to 32 oz. liquid (Sol. A). To another 18 ml. of “Roundup Concentrate” was added 18 ml. of dimethyl azelate and this mixture diluted with water to 32 liq. oz. (Sol. B). Thus, each solution contained the same amount of glyphosate while Sol. B also contained 2% dimethyl azelate.
# Sol. A was applied with a hand sprayer on a 2 ft. by 3 ft. plot of ground containing a variety of weeds. Sol. B was applied in the same manner on a similar adjacent plot containing the same variety of weeds. The temperature was in the mid-80's (° F.) during the test period with no rain.
# The test plots were observed daily.
# target weed = assay: General observations on time to necrosis or kill of weeds
Structure (SMILES),% Necrosis After 1 Day (Velvetleaf) [%],% Control 5 Days (Velvetleaf) [%],% Control 9 Days (Velvetleaf) [%],% Control 21 Days (Velvetleaf) [%],% Necrosis Day 1 [1] [%],% Necrosis Day 3 [1] [%],% Control Day 9 [1] [%],% Control Day 12 [1] [%],% Control Day 15 [1] [%],% Control Day 19 [1] [%],% Necrosis After 1 Day (Rye (Secale cereale L)) [%],% Necrosis After 3 Day (Rye (Secale cereale L)) [%],% Control 5 Days (Rye (Secale cereale L)) [%],% Control 9 Days (Rye (Secale cereale L)) [%],% Control 21 Days (Rye (Secale cereale L)) [%],% Necrosis After 1 Day (corn (Zea mays L.)) [%],% Necrosis After 3 Day (corn (Zea mays L.)) [%],% Control 5 Days (corn (Zea mays L.)) [%],% Control 9 Days (corn (Zea mays L.)) [%],% Control 21 Days (corn (Zea mays L.)) [%],other results
COc1cc(Cl)nc(NC(=O)NS(=O)(=O)c2ccccc2C(=O)O)n1 [Chlorimuron],0,48,53,23,–,–,–,–,–,–,–,–,–,–,–,–,–,–,–,–,–
"COC(=O)CCCCCCCC(=O)OC [DMA, Dimethyl azelate]",0,0,0,0,49,53,33,21,18,13,13,15,8,0,0,18,15,13,0,0,"response of velvetleaf, in words (Velvetleaf; dimethyl azelate alone, 1.5 % W/W): tolerant; % Epinasty Day 5 (leaf distortion and downward twisting) ([2]; Day 5, 2,4-D ester 0.3 % W/W): 5%; % Control Day 7 ([2]; Day 7, 2,4-D ester 0.3 % W/W): 3%; % Control Day 10 ([2]; Day 10, 2,4-D ester 0.3 % W/W): 0%; % Control Day 14 ([2]; Day 14, 2,4-D ester 0.3 % W/W): 0%; % Control Day 21 ([2]; Day 21, 2,4-D ester 0.3 % W/W): 0%"
O=C(O)CNCP(=O)(O)O [Glyphosate],–,–,–,–,0,0,53,100,100,100,–,–,–,–,–,–,–,–,–,–,"visual effect on the weeds of the plot, in words (a variety of weeds): unaffected; time for weed and grass necrosis to approach 100% (target weed; without the addition of dimethyl azelate): 3 to 4 days; minimal necrosis times (target weed; without the diester): three to four"
CCC/C(=N\OCC)C1=C(O)CC(CC(C)SCC)CC1=O (stereo not shown) [Sethoxydin],–,–,–,–,–,–,–,–,–,–,0,3,24,79,94,0,3,10,40,88,–
